The values that follow come from PMC4467156, “A new chemical inhibitor of angiogenesis and tumorigenesis that targets the VEGF signaling pathway upstream of Ras” (Oncotarget, 2015).

For one data set, the target named is PDGFRß (Homo sapiens, UniProt P09619). As to the kind of experiment: In vitro kinase assay PDGFRß. Type of data set: biochemical. Particulars: concentrations up to 50 μM. The protocol:
(§1) We first wondered whether COB223 required to be internalized to exert its biological effect. For this, we synthesized a covalent complex between BSA and COB223 and purified it. […] In vitro kinase assays were performed with a panel of purified protein-kinases involved in mitogenic signaling, including VEGFR2, FGFR1, FGFR2, PDGFRß, Met, Raf, MEK1, ERK1, ERK2, PKCα, PKCβI, PKCβII, PKCζ as indicated in Table 2. […] We then analyzed the effect of COB223 on VEGF-induced phosphorylations of VEGFR2, MEK and ERK1/2 (Figure 9). […] (Figure 9A, 9B). […] It was also specific of the p42/p44 MAP kinase pathway as activation of p38 MAP kinase phosphorylation in HUVEC cells by VEGF or serum was unaffected by COB223 (data not shown). The activation of src phosphorylation by VEGF in HUVECs was also unaffected by COB223 (data not shown).

Another data set deals with ERK1/2 phosphorylation. Briefly: ERK1/2 phosphorylation in MCF-10A cells expressing oncogenic RasG12V. Particulars: 25 μM COB223. Format: cell-based. The protocol:
Figure 11 Effect of COB223 on mitogenic or oncogenic activation of the Ras /MEK/ERK signaling pathway (A) Serum-starved HUVEC cells were incubated for 15 min in the presence of 10 ng/mL VEGF-A and in the absence or the presence of 25 μM COB223. The phosphorylations of PLCγ on tyrosine 783, of Raf on serine 338 or on serine 259 and of ERK1/2 were then analyzed by Western blot analysis of the cell lysates as described in Material and Methods. Western blots for total PLCγ, Raf and ERK1/2 were used as loading controls. (B) MCF10A cells overexpressing an oncogenic version of Ras (MCF10A-RasG12V) were treated for the indicated periods of time by 25 μM COB223. Total ERK1/2 and phospho-ERK1/2 were then visualized by Western blotting of the cell extracts. Non-treated regular MCF10A cells were analyzed as a control (first lane). (C) CCL-39 fibroblasts expressing a constitutively active Raf in an estrogen-responsive manner were stimulated for 3 h with estradiol and treated for 15 or 30 min with 25 μM COB223. Total ERK1/2 and phospho-ERK1/2 were then visualized by Western blotting of the cell extracts. Non-treated cells were analyzed as a control (left lanes).

Data set [1] relates to HUVEC cells. Briefly: Boyden chamber cell migration assay. Format: cell-based, human. Conditions: 25 μM COB223 in upper chamber. The protocol:
The assay was performed using 24-multiwell plates and individual cell culture inserts bearing a porous (size of pores: 3 μm) and dyed bottom membrane, which were purchased from BD (FluoroBlok^TM). HUVEC cells were rendered fluorescent by incubation for 24 h in the presence of 5 μg/ml of Di-I (1,1′-dioctadecyl-3,3,3′3′-tetramethylindocarbocyanine perchlorate) and subsequently seeded (5 × 10^4 cells/insert) in the upper chambers (inserts) in serum-free culture medium supplemented with 25 μM COB223 or with vehicle (DMSO). Serum supplemented medium (5% FCS) was placed in the lower chambers (plate wells). After incubation for 4 h or 24 h at 37°C, the fluorescence of cells that had passed through the dyed membrane was measured on a plate reader at 540 nm/570 nm excitation/emission wavelengths. […]
Figure S1: Effect of COB223 on endothelial cell migration. […] Wound closure was measured after 24 h and 48 h of incubation as described in Material and Methods. […]
(§2) (B) Boyden chamber assay: The technique is described in Material and Methods. We measured the passage of fluorescently labeled HUVEC cells through a 3 μm-porous membrane in response to fetal calf serum used as a chemo-attractant. […] The Figure represents the mean fluorescence ± SD of duplicate determinations after 24 h or 48h of incubation from two independent experiments. […]

For the next data set, the target named is PKCα (Homo sapiens, UniProt P17252). As to the kind of experiment: In vitro kinase assay PKCα. Type of data set: biochemical. Particulars: concentrations up to 50 μM. The protocol: as §1
Data set [2] relates to HUVEC cells. As to the kind of experiment: Scratch assay on HUVEC with or without mitomycin C. Format: cell-based, human. Conditions: HUVEC, 25 μM COB223, mitomycin C 2 μg/mL pretreatment, 24 h and 48 h. The protocol: Confluent cell monolayers were wounded with a plastic pipet tip, washed gently with phosphate buffer saline (PBS) and treated with complete media containing molecules, as indicated. Cells were placed at 37°C into the incubator and photographed at indicated times. Quantitation of closure of the monolayer was performed using the NIH Image J program (http://rsbweb.nih.gov/ij/). Results are expressed as percentage of wound closure at t = 24 h as compared to the initial wound at t = 0 h. […]
www.impactjournals.com/oncotarget/ Oncotarget, Supplementary Materials 2015 […]
Figure S1: Effect of COB223 on endothelial cell migration. (A) Scratch assay: Confluent HUVEC cells were pretreated for 24 h without (CTL) or with 2 μg/mL of mitomycin C before a wound was made in the cell monolayer. After wounding, cells were incubated at 37°C in the absence or the presence of 25 μM COB223. Wound closure was measured after 24 h and 48 h of incubation as described in Material and Methods. […]
as §2

Another data set relates to HMVECd cells. As to the kind of experiment: 3H-thymidine incorporation, HMVECd. Type of data set: cell-based, human. Particulars: 24 h. The protocol:
Cells were treated with molecules in complete medium. After 22 h, 1 μCi per well H^3 thymidine was added for 2 hours. Cells are then fixed by 10% trichloroacetic acid and harvested with 0.2N NaOH, 1% SDS. Radioactivity was measured in a beta counter.

For the next data set, the system named is LLC/2 cells. As to the kind of experiment: Cell viability WST-1, LLC/2. Format: cell-based. Particulars: confluent LLC/2, 24 h at 37°C. The protocol: Once they had reached confluency, cells were kept for 24 hours in medium supplemented with 0.5% FCS (LLC/2 and 3T3 cells) or 2.5% FCS (HUVEC and HMVEC-d cells), in the presence of COB223 at different concentrations. WST-1 assay (Roche Diagnostic, Meylan, France) was then performed according to the manufacturer's instructions.
In general terms: Formazan colour is commonly taken as a measure of viable cells.

PDGFRß, sequence (P09619 33-1106, species assumed): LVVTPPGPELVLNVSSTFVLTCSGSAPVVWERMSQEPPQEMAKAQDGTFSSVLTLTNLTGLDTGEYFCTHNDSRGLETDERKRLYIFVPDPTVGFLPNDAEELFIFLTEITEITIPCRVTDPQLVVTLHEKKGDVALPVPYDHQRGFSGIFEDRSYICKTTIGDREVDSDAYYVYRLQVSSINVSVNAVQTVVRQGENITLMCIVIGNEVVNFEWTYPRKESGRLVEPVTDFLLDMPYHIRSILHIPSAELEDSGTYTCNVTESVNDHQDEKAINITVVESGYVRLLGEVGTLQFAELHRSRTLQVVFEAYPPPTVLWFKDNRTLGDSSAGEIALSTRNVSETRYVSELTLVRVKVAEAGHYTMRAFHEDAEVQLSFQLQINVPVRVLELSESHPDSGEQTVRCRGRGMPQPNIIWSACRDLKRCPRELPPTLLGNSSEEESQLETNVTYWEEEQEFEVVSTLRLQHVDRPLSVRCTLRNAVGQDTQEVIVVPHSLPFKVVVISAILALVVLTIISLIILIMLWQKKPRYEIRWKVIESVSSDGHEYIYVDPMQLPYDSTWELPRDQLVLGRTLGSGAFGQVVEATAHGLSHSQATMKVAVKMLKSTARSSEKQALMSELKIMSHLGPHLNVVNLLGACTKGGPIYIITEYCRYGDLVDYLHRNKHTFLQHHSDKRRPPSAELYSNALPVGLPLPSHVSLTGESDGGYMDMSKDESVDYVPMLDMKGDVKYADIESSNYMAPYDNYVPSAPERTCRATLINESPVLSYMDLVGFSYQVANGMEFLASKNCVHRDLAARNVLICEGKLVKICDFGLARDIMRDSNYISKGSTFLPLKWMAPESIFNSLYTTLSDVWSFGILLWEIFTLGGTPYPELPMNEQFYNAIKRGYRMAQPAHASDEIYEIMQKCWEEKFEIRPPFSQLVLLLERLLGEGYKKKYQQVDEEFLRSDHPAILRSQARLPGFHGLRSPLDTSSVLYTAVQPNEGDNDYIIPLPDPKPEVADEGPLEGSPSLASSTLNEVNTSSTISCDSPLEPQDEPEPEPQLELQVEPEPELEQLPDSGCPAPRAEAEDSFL

Take `CN(C)c1cccc2c(S(=O)(=O)NCCCN3CCN(CCCNC(=O)OC(C)(C)C)CC3)cccc12` [COB223, tert-Butyl 3-(4-(3-(5-(dimethylamino)naphthalene-1-sulfonamido)propyl)piperazin-1-yl) propylcarbamate]: the “kinase inhibition” value at PDGFRß and at PKCα was “None of them was inhibited” each time. Also, the “constitutive phosphorylation of ERK1/2 induced by oncogenic RasG12V” value with ERK1/2 phosphorylation is “did not modify”. For the same compound, the “migration towards fetal calf serum (Boyden chamber)” value in the data set with HUVEC cells [1] was “significantly inhibited”. For the same compound, the “endothelial cell wound closure in the presence of mitomycin C” value in the data set with HUVEC cells [2] is “still inhibited”. Further, the “concentrations inhibiting thymidine incorporation” value with HMVECd cells is recorded as “above 5 μM”. The cytotoxic concentrations with LLC/2 cells is greater than 50 µM.
